{"source": "patent US20260256143A1", "about": "“HERBICIDAL COMPOSITION AND METHOD FOR CONTROLLING WEEDS” (Enko Chem, Inc., priority 2023, published 2026)", "key": {"AMATU [1]": {"tested_on": "AMATU", "assay": "Field test, soil residual activity on bare soil (Example 71)", "type": "in vivo, Amaranthus rudis", "settings": "Amaranthus tuberculatus, 1008 h, 6 weeks after application, read-out: % growth inhibition AMATU", "procedure": "(§1) Compound 1 and Compound 1 mixed with pyroxasulfone were tested at different field locations to evaluate the herbicides efficacy for controlling weeds by soil residual activity. All herbicide treatments were applied with a backpack CO2 pressurized sprayer at 190 L/ha volume. The herbicide applications were made to bare soil free of any vegetation to assess the efficacy of the different herbicides to suppress weeds germination and development. The herbicide treatments included Compound 1 formulated as 10% emulsified concentrate, pyroxasulfone as a commercial formulation (ZIDUA SC, BASF), or a mixture of Compound 1 and pyroxasulfone products prepared as a “tank-mix” before the field application. All herbicide field spray solution included ammonium sulfate final solution concentration of 2%. Different weeds species were assessed at the separate field locations. For each species, the herbicide efficacy to control weeds, assessed as % of suppressed weeds plants relative to the untreated control plots, was evaluated at 6 weeks after the herbicide application."}, "ABUTH": {"tested_on": "ABUTH", "assay": "Field test, soil residual activity on bare soil (Example 71)", "type": "in vivo", "settings": "Abutilon theophrasti, 1008 h, 6 weeks after application, read-out: % growth inhibition ABUTH", "procedure": "as §1"}, "AMAPA [2]": {"tested_on": "AMAPA", "assay": "Field test, soil residual activity on bare soil (Example 71)", "type": "in vivo", "settings": "Amaranthus palmeri, 1008 h, 6 weeks after application, read-out: % growth inhibition AMAPA", "procedure": "as §1"}, "CHEAL [3]": {"tested_on": "CHEAL", "assay": "Field test, soil residual activity on bare soil (Example 71)", "type": "in vivo", "settings": "Chenopodium album, 1008 h, Loc 6, pyroxasulfone 90 g a.i./ha, 6 weeks after application, read-out: % growth inhibition CHEAL", "procedure": "as §1"}, "DIGSA [4]": {"tested_on": "DIGSA", "assay": "Field test, soil residual activity on bare soil (Example 71)", "type": "in vivo", "settings": "Digitaria sanguinalis, 1008 h, Loc 5, pyroxasulfone 90 g a.i./ha, 6 weeks after application, read-out: % growth inhibition DIGSA", "procedure": "as §1"}, "SETFA": {"tested_on": "SETFA", "assay": "Field test, soil residual activity on bare soil (Example 71)", "type": "in vivo", "settings": "Setaria faberi, 1008 h, Loc 4, pyroxasulfone 90 g a.i./ha, 6 weeks after application, read-out: % growth inhibition SETFA", "procedure": "as §1"}, "AMAPA [5]": {"tested_on": "AMAPA", "assay": "Greenhouse pre-emergence residual test (Example 73)", "type": "in vivo, Amaranthus palmeri", "settings": "Amaranthus palmeri, pre-emergence; Dose 90 g a.i./ha; 17-21 DAT; read-out: Pre-emergence percent weed growth and germination inhibition AMAPA", "procedure": "(§2) Compound 1 was tested at several doses for residual weed control efficacy by itself or in combination as a tank mix with commercial herbicides. The following commercial products were used in tank mix with a 10% active emulsifiable concentrate formulation of Compound 1: S-metolachlor (Dual Magnum®, Syngenta), mesotrione (Callisto®, Syngenta), pyroxasulfone (Zidua® SC, BASF), metribuzin (Tricor DF™, United Phosphorus, Inc).\n(§3) Accordingly, weed seeds were planted in 2-inch pots containing custom field soil mix (sandy loam with 3.3% organic matter, pH 7.0) and covered with a fine layer of the same soil. Three replicate pots were treated with each compound. Treatment consisting of the above formulation excluding active compound was applied as a treatment control (TC). Pots were treated with the test compound solution in a laboratory spray chamber fitted with 8003 even fan nozzles calibrated to deliver 187-200 L ha^−1 at 269 kPa. All treatments included the following inert ingredients in the final formulation; 1% Crop Oil Concentrate (v/v) (AGRI-DEX, Helena Agri) and 2.5% Ammonium sulphate (w/v). Compound 1 was incorporated into the soil by simulating rainfall equivalent to 0.2 mm using the same track sprayer. Subsequently, pots were irrigated from the bottom until weed control evaluation. Pots were placed back in the greenhouse and evaluated for percentage visual growth and germination inhibition compared to TC 17-21 days after treatment (DAT). Complete growth inhibition is represented by 100%."}, "AMATU [6]": {"tested_on": "AMATU", "assay": "Greenhouse pre-emergence residual test (Example 73)", "type": "in vivo, Amaranthus rudis", "settings": "Amaranthus tuberculatus, pre-emergence; Dose 90 g a.i./ha; 17-21 DAT; read-out: Pre-emergence percent weed growth and germination inhibition AMATU", "procedure": "as §2, §3"}, "KCHSC": {"tested_on": "KCHSC", "assay": "Greenhouse pre-emergence residual test (Example 73)", "type": "in vivo, Bassia scoparia", "settings": "Bassia scoparia, pre-emergence; Dose 90 g a.i./ha; 17-21 DAT; read-out: Pre-emergence percent weed growth and germination inhibition KCHSC", "procedure": "as §2, §3"}, "CHEAL [7]": {"tested_on": "CHEAL", "assay": "Greenhouse pre-emergence residual test (Example 73)", "type": "in vivo, Chenopodium album", "settings": "Chenopodium album, pre-emergence; Dose 90 g a.i./ha; 17-21 DAT; read-out: Pre-emergence percent weed growth and germination inhibition CHEAL", "procedure": "as §2, §3"}, "DIGSA [8]": {"tested_on": "DIGSA", "assay": "Greenhouse pre-emergence residual test (Example 73)", "type": "in vivo, Digitaria sanguinalis", "settings": "Digitaria sanguinalis, pre-emergence; Dose 90 g a.i./ha; 17-21 DAT; read-out: Pre-emergence percent weed growth and germination inhibition DIGSA", "procedure": "as §2, §3"}, "ALOMY": {"tested_on": "ALOMY", "assay": "Greenhouse pre-emergence residual test (Example 73)", "type": "in vivo, Alopecurus myosuroides", "settings": "Alopecurus myosuroides, pre-emergence; Dose 90 g a.i./ha; 17-21 DAT; read-out: Pre-emergence percent weed growth and germination inhibition ALOMY", "procedure": "as §2, §3"}, "ECHCG": {"tested_on": "ECHCG", "assay": "Greenhouse pre-emergence residual test (Example 73)", "type": "in vivo, Echinochloa crus-galli", "settings": "Echinochloa crus-galli, pre-emergence; Dose 90 g a.i./ha; 17-21 DAT; read-out: Pre-emergence percent weed growth and germination inhibition ECHCG", "procedure": "as §2, §3"}, "[9]": {"settings": "Loc 3, pyroxasulfone 90 g a.i./ha"}}, "note": "Where two headings read alike, the source gives them in different places.", "data": [{"smiles": "Cn1nc(C(F)(F)F)c(CS(=O)(=O)C2=NOC(C)(C)C2)c1OC(F)F", "note": "[pyroxasulfone]", "values": [{"measurement": "inhibition at 90 g/ha", "setting": "AMATU [1]; Loc 1, pyroxasulfone 90 g a.i./ha", "value": 97, "unit": "%"}, {"measurement": "inhibition at 90 g/ha", "setting": "AMATU [1]; Loc 2, pyroxasulfone 90 g a.i./ha", "value": 74, "unit": "%"}, {"measurement": "inhibition at 90 g/ha", "setting": "ABUTH; [9]", "value": 44, "unit": "%"}, {"measurement": "inhibition at 90 g/ha", "setting": "ABUTH; Loc 4, pyroxasulfone 90 g a.i./ha", "value": 60, "unit": "%"}, {"measurement": "inhibition at 90 g/ha", "setting": "ABUTH; Loc 6, pyroxasulfone 90 g a.i./ha", "value": 50, "unit": "%"}, {"measurement": "inhibition at 90 g/ha", "setting": "AMAPA [2]; [9]", "value": 34, "unit": "%"}, {"measurement": "inhibition at 90 g/ha", "setting": "AMAPA [2]; Loc 5, pyroxasulfone 90 g a.i./ha", "value": 75, "unit": "%"}, {"measurement": "inhibition at 90 g/ha", "setting": "CHEAL [3]", "value": 88, "unit": "%"}, {"measurement": "inhibition at 90 g/ha", "setting": "DIGSA [4]", "value": 74, "unit": "%"}, {"measurement": "inhibition at 90 g/ha", "setting": "SETFA", "value": 77, "unit": "%"}, {"measurement": "inhibition at 90 g/ha", "setting": "AMAPA [5]", "value": 73, "unit": "%"}, {"measurement": "inhibition at 90 g/ha", "setting": "AMATU [6]", "value": 83, "unit": "%"}, {"measurement": "inhibition at 90 g/ha", "setting": "KCHSC", "value": 80, "unit": "%"}, {"measurement": "inhibition at 90 g/ha", "setting": "CHEAL [7]", "value": 100, "unit": "%"}, {"measurement": "inhibition at 90 g/ha", "setting": "DIGSA [8]", "value": 78, "unit": "%"}, {"measurement": "inhibition at 90 g/ha", "setting": "ALOMY", "value": 47, "unit": "%"}, {"measurement": "inhibition at 90 g/ha", "setting": "ECHCG", "value": 100, "unit": "%"}]}]}
